“And” between values parts separate entries of the source, which are not always exact repeats. Equal entries are not always repeated. Where two headings read alike, the source gives them in different places.
How the values were obtained:
[1] = system: R. sanguineus; test: In vitro tick contact assay, comparison with standards
Method: (§1) A solution of the test compounds was used to coat the inner wall of glass vials and to treat two filter papers. Once dried, one filter paper was placed in the cap of the vial and the other in the bottom of the vial. Each treated vial was infested with 10 ticks. Contact of the ticks with residues was induced by holding the vials in a controlled environment and assessment was performed at 12, 24 and 48 hours after application in comparison with untreated glass vials and solvent-treated glass vials. Compounds were tested in duplicate and two separate trials (n=4).

[2] = system: Ctenocephalides felis; conditions: for Ingestion EC50: fleas
Method: In Vitro Evaluation of Ingestion Activity Against Fleas (Ctenocephalides Felis)
For flea ingestion tests, an aliquot of each compound stock was added to organic bovine blood contained in an artificial feeding container, with a final DMSO concentration of 0.5%. Ten newly emerged unfed fleas, Ctenocephalides felis, from a laboratory colony, 0-7 days old, were aspirated into a chamber and exposed to the appropriate feeding container and held in a controlled environment at 35° C. Fleas were evaluated for % mortality at 24, 48, and 72 hours post infestation. Fleas showing normal movement and/or jumping ability were considered viable and those showing no movement after tapping the vials were scored as dead. The compound+blood mixture was replaced every 24 hours.

[3] = system: Ctenocephalides felis; test: Ctenocephalides felis residual contact assay; conditions: for Contact EC50: 48 h, fleas
Method: Ctenocephalides felis Residual Contact Assay
A solution of the test compounds, individually and in combination was dispensed onto a substrate placed into a glass vial. The treated surface was allowed to dry before infesting each vial with 10 adult Ctenocephalides felis. The treated vials were held in a controlled environment and assessment was performed at 6, 24 and 48 hours after application in comparison with untreated controls glass vials and solvent-treated glass vials. Compounds were tested in duplicate and two separate trials (n=4).

[4] = system: D. variabilis; test: In vitro tick contact assay, comparison with standards
Method: as §1

[5] = system: A. americanum; test: as above
Method: as §1

[6] = system: I. scapularis; test: as above
Method: as §1

[7] = system: Dirofilaria immitis microfilariae; test: Dirofilaria immitis microfilariae motility assay; conditions: 72 h, read-out: concentration at which active, microfilariae motility
[8] = system: Aedes aegypti; test: In vitro evaluation of ingestion activity against mosquitoes; conditions: at 20 hours, compound in bovine blood, read-out: concentration at which active, mosquito ingestion
Method: In Vitro Evaluation of Ingestion Activity Against Mosquitoes (Aedes aegypti)
A solution of test compounds is added to bovine blood contained in a feeding chamber to reach the desired final concentration. Blood spiked with DMSO is prepared to serve as control. Adult female mosquitoes are introduced at the bottom of the chamber and allowed to feed on blood mixtures containing DMSO or test compounds for 30 minutes. Fully engorged mosquitoes are sorted into clean chambers after the blood meal and monitored for survival over 3 days. Replicates containing 10 mosquitoes are performed with each test compound concentration and results calculated as % mortality at specific time points.

SMILES | R. sanguineus Contact EC50 ([1]; 24 h) | R. sanguineus Contact EC50 ([1]; 48 h) | Ingestion EC50 ([2]; 24 h) | Contact EC50 [3] | D. variabilis Contact EC50 ([4]; 24 h) | D. variabilis Contact EC50 ([4]; 48 h) | A. americanum Contact EC50 ([5]; 24 h) | A. americanum Contact EC50 ([5]; 48 h) | I. scapularis Contact EC50 ([6]; 24 h) | I. scapularis Contact EC50 ([6]; 48 h) | Ingestion EC50 ([2]; 2 h) | minimal effective concentration [7] | minimal effective concentration [8] | flea potency by contact relative to commercially available standards ([3]; versus fluralaner, afoxolaner) | flea potency by ingestion relative to commercially available standards ([2]; versus fluralaner, afoxolaner, (+/−)sarolaner)
CS(=O)(=O)CC(=O)N1CC2(C1)OCc1cc(C3=NO[C@@](c4cc(Cl)c(F)c(Cl)c4)(C(F)(F)F)C3)ccc12 (racemic) [(+/−) Sarolaner, Sarolaner] | 37.8 ± 12.2 ppm | 12.7 ± 0.1 ppm | 1.23 ± 0.11 ppm |  |  |  |  |  |  |  |  |  |  |  | 
O=C(CNC(=O)c1ccc(C2=NOC(c3cc(Cl)cc(C(F)(F)F)c3)(C(F)(F)F)C2)c2ccccc12)NCC(F)(F)F (stereo not shown) [Afoxolaner] | >50 ppm | 20.2 ± 5.0 ppm | 0.13 ± 0.05 ppm | >50 ppm | >50 ppm | 12.35 ± 0.5 ppm | 31.6 ppm and > 50 ppm | 11.3 ± 2.3 ppm | 17.8 ± 5.9 ppm | 5.31 ± 1.8 ppm | 6.0 ± 2.9 ppm |  |  |  | 
O=C(CC(F)(F)F)N1CC2(C1)OCc1cc(C3=NSC(c4cc(Cl)c(F)c(Cl)c4)(C(F)(F)F)C3)ccc12 (stereo not shown) [Compound 1, 1-[6-[5-(3,5-dichloro-4-fluoro-phenyl)-5-(trifluoromethyl)-4H-isothiazol-3-yl]spiro[1H-isobenzofuran-3,3′-azetidine]-1′-yl]-3,3,3-trifluoro-propan-1-one] | 17.0 ± 3.8 ppm | 4.6 ± 3.0 ppm | 0.20 ± 0.10 ppm | 29.0 ± 0.3 ppm | 12.2 ± 0.6 ppm | 5.0 ± 1.6 ppm | 13.5 ± 5.1 ppm | 2.7 ± 0.4 ppm | 2.0 ± 0.4 ppm | 0.04 ± 0.02 ppm | 2.6 ± 0.3 ppm | < 10 µM | < 1 µg/mL | superior potency by contact | comparable potency by ingestion
Cc1cc(C2=NOC(c3cc(Cl)cc(Cl)c3)(C(F)(F)F)C2)ccc1C(=O)NCC(=O)NCC(F)(F)F (stereo not shown) [Fluralaner] | 37.1 ± 16.3 ppm | 9.8 ± 5.0 ppm | 0.06 ± 0.02 ppm | >50 ppm | 18.4 ± 3.0 ppm | 4.9 ± 1.4 ppm |  | 20.4 ± 10.7 ppm | 6.4 ± 3.3 ppm | 1.3 ± 0.2 ppm | 1.6 ± 0.7 ppm |  |  |  | 
CCCCC(=O)N1CC2(C1)OCc1cc(C3=NSC(c4cc(Cl)c(F)c(Cl)c4)(C(F)(F)F)C3)ccc12 (stereo not shown) [Compound 35, 1-[6-[5-(3,5-dichloro-4-fluoro-phenyl)-5-(trifluoromethyl)-4H-isothiazol-3-yl]spiro[1H-isobenzofuran-3,3′-azetidine]-1′-yl]pentan-1-one] |  |  |  |  |  |  |  |  |  |  |  | < 10 µM | < 1 µg/mL |  | 
O=C(Nc1ccccc1)N1CC2(C1)OCc1cc(C3=NSC(c4cc(Cl)c(F)c(Cl)c4)(C(F)(F)F)C3)ccc12 (stereo not shown) [Compound 17, 6-[5-(3,5-dichloro-4-fluoro-phenyl)-5-(trifluoromethyl)-4H-isothiazol-3-yl]-N-phenyl-spiro[1H-isobenzofuran-3,3′-azetidine]-1′-carboxamide] |  |  |  |  |  |  |  |  |  |  |  | < 10 µM | < 1 µg/mL |  | 

Reference: patent US9420793B2, “Antiparasitic compounds” (Avista Pharma Solutions, priority 2015, dated 2016)
